Assay results from US20020025943A1, “Nucleoside analog compositions and uses thereof” (priority 1997, published 2002).
Where two headings read alike, the source gives them in different places.

How the values were obtained:
HIV-1 (RF strain) = test: NCI AIDS antiviral screen: inhibition of HIV-1 cytopathicity in T4 lymphocytes (CEM line), XTT viability; assay type: cell-based; conditions: for EC50: NCI screen, mean value
Protocol: Three DHA-ddC (compounds 8, 9, and 10 above) and one DHA-AZT conjugate (the compound described above) were sent to the National Cancer Institute's AIDS antiviral screen to test their anti-HIV activity in vitro. The compounds were provided as solutions in ethanol. The vials containing the conjugates were sealed under argon to prevent oxygen from possibly degrading the conjugates. Instructions were provided to store the vials containing the conjugates at 4° C. and to open the vials immediately before use.
The primary screen used by the NCI for anti-HIV activity utilizes the cytopathicity of HIV-1 for human T4 lymphocytes and the inhibition of such killing by drugs that inhibit viral cytotoxicity. The experimental protocols are described by Weislow et al., (J. Natl. Cancer Inst. 81:577-586, 1989) and Bader (, whose contents are incorporated herein by reference. Briefly, the compounds are diluted first in DMSO or other appropriate solvent, then diluted 1:100 in cell culture medium before preparing serial half log10 dilutions. T4 lymphocytes (CEM line) are added, and after a brief interval HIV-1 (RF strain) is added. Appropriate controls (infected and uninfected cells without compound, and non-infected cells with the compound) are included in the plate format. The cultures are incubated at 37° C. for six days during which time the cells proliferate, the virus reproduces and kills the cells. Cell viability is measured by the ability of cells to convert a colorless tetrazolium salt (XTT) to a highly colored soluble formazan. The intensity of the color is read in a spectrophotometer using an automated system. The wells are also examined microscopically to confirm the protective activity of the compounds.

HIV in human T4 cells = test: Anti-HIV experiments performed at the Southern Research Institute (SRI); assay type: cell-based; conditions: for Fold Increase in Potency: SRI, Control/Expt, relative to the parent drug (AZT or ddC)
Text: The results of the experiments performed at SRI are shown in Table 2; the results were expressed in terms of inhibitory concentration
These in vitro data in human cells establish that conjugating ddC drugs to DHA achieves higher activity (between >5400 fold to 55 to 13 fold) against HIV in human T4 cells. In particular, conjugation of DHA to ddC drugs at the pyrimidine ring of ddC rather than the pentose ring is preferred based upon the unexpected results of the foregoing assays.

[1] = Human immunodeficiency virus 1, Lymphocyte
[2] = Human immunodeficiency virus 1, SRI experiments, read-out: Inhibitory Concentration
[3] = SRI experiments, read-out: Inhibitory Concentration

| SMILES | EC50 (HIV-1 (RF strain); [1]) [nM] | IC50 (HIV in human T4 cells; [2]) [nM] | Fold Increase in Potency (HIV in human T4 cells) [fold] | IC50 (HIV in human T4 cells; [3]) [nM] | other results |
| --- | --- | --- | --- | --- | --- |
| Cc1cn([C@H]2CC(N=[N+]=[N-])[C@@H](CO)O2)c(=O)[nH]c1=O (stereo partly drawn) [AZT, reference compound] | 17.7 | 100 | 1.0 | – | – |
| CC/C=C\C/C=C\C/C=C\C/C=C\C/C=C\C/C=C\CCC(=O)OC[C@H]1O[C@@H](n2cc(C)c(=O)[nH]c2=O)C[C@@H]1N=[N+]=[N-] [DHA-AZT] | – | – | 1.7 | 60 | EC50 (HIV-1 (RF strain)): 26.2 nM; anti-HIV activity of the conjugate relative to that of the parent drug, AZT (HIV-1 (RF strain); NCI studies): did not alter the anti-HIV activity; activity relative to AZT alone (HIV in human T4 cells; same assays as the DHA-ddC conjugates): not increased |
| CC/C=C\C/C=C\C/C=C\C/C=C\C/C=C\C/C=C\CCC(=O)Nc1ccn([C@H]2CC[C@@H](CO)O2)c(=O)n1 [DHA-ddC 8] | – | 6.93 | 54.8 | – | Fold Increase in Potency over ddC (HIV-1 (RF strain); mean EC50 for ddC (moles/L) divided by EC50 of the conjugate (moles/L)): >3807 fold |
| CC/C=C\C/C=C\C/C=C\C/C=C\C/C=C\C/C=C\CCC(=O)Nc1ccn([C@H]2CC[C@@H](COC(=O)CC/C=C\C/C=C\C/C=C\C/C=C\C/C=C\C/C=C\CC)O2)c(=O)n1 [DHA-ddC 9] | – | 30 | 12.7 | – | – |
| CC/C=C\C/C=C\C/C=C\C/C=C\C/C=C\C/C=C\CCC(=O)OC[C@@H]1CC[C@H](n2ccc(N)nc2=O)O1 [DHA-ddC 10] | – | – | 38 | 10 | – |
| Nc1ccn([C@H]2CC[C@@H](CO)O2)c(=O)n1 [ddC, 2′,3′-dideoxycytidine, reference compound] | 114 | – | 1.0 | – | IC50 (HIV in human T4 cells; Human immunodeficiency virus 1, read-out: Inhibitory Concentration): 300 nM |
